Data published in patent US20240240226A1, “FLUOROGENIC ASSAY FOR RAPID SCREENING OF BACTERIAL BETA-LACTAMASE ACTIVITY” (The Board of Trustees of the Leland Stanford Junior …, priority 2021, published 2024).

What was measured:
E. coli/KPC-3 = experiment: CDA/H2O2 detection of live E. coli expressing KPC-3 carbapenemase; type: cell-based; conditions: CDA 10 μM, H2O2 1 mM, room temperature
Description: FIG. 23 illustrates the fluorescence enhancement of CDA incubated with different concentrations of E. coli expressing KPC-3 carbapenemase in PBS at room temperature; CDA, 10 μM, and H2O2, 1 mM. The signal of CDA in H2O2 was subtracted and the absolute values were plotted. Data were collected on a Tecan Safire microplate reader with excitation at 570 nm and emission at 600 nm. A.U. indicates arbitrary units.
Factoring the 100 μL assay volume, as low as 100 bacteria in one 96 well were detectable with the assay. A concentration of H2O2 at 1-2 mM efficiently oxidized the processed CDA to resorufin inside E. coli. Next, the assay was used to detect E. coli/IMP-1 and E. coli/KPC-3 (FIGS. 3e and 23). E. coli/IMP-1 was detected at […] within 2 hours, and E. coli/KPC-3 could be reliably detected at around 10^5-10^6 c.f.u./mL.
Bacteria growth and assay: E. coli (BL21 or TOP10) transformed to express TEM-1 Bla, IMP-1, and KPC3 were grown in LB medium and induced with 0.2% arabinose for 6-8 h at 30° C., 205 rpm. Colony forming units per milliliter (c.f.u./mL) were determined by measuring the UV absorbance at OD600.
For CDA incubation, 10 μM working solution was prepared freshly by diluting stock solution (1 mM in pure DMSO) in PBS (pH 7.05). A light-safe tube or foil wrap was used to prevent photobleaching.

E. coli/TEM-1 = experiment: CDA detection of live E. coli expressing TEM-1 Bla; type: cell-based
Description: (§1) FIG. 3 illustrates the characterization of CDA with HRP, H2O2, E. coli expressing TEM-1 Bla (E. coli/TEM-1) and IMP-1 carbapenemase (E. coli/IMP-1), and K. pneumoniae expressing KPC carbapenemase (K. pneumoniae/KPC). a) Fluorescence enhancement of CDA incubated with different concentrations of E. coli expressing TEM-1 Bla. b) Fluorescence enhancement of CDA; HRP (1 unit/mL), H2O2 (1 μM), and either viable E. coli expressing TEM-1 Bla or bacterial lysate extracted from equal c.f.u. per milliliter. c) Fluorescence enhancement of CDA incubated with different concentrations of E. coli expressing TEM-1 Bla (H2O2, 1 mM). d) Fluorescent intensity of E. coli and E. coli/TEM-1 preincubated with CDA for 20 hours upon addition of H2O2 (500 μM) for 5 min. Error bars represent ±SD, n=3. * p<0.0332; **p<0.0021, ****p<0.0001, ns: not significant. e) Fluorescence enhancement of CDA incubated with different concentrations of E. coli expressing IMP-1 carbapenemase in the presence of H2O2 (1 mM). f) Fluorescence enhancement of CDA incubated with different concentrations of K. pneumoniae expressing KPC carbapenemase (H2O2, 1 mM). […] Data were collected on a Tecan Safire microplate reader with excitation at 570 nm and emission at 600 nm. […]
It was studied if CDA could report β-lactamase activity in live E. coli and Klebsiella pneumoniae (K. pneumoniae) which are commonly found in many infections. Three transformed E. coli strains expressing the most clinically prevalent β-lactamases including TEM-1 Bla (E. coli/TEM-1) and two carbapenemases were evaluated: a metallo-β-lactamase IMP-1 (E. coli/IMP-1) and a unique class A β-lactamase KPC-3 (E. coli/KPC-3) that hydrolyze carbapenem antibiotics. […]
To address the question of whether a higher concentration of H2O2 would equilibrate across membranes of viable bacteria and accelerate the oxidation of processed CDA, a serial dilution of H2O2 (100 μM, 500 μM, 1 mM, 2 mM) was incubated with CDA and different concentrations of E. coli and E. coli/TEM-1 for a longitudinal reading (FIGS. 3c, 21b, and 22). […]

TEM-1 Bla = molecular target: T1, TEM-1 Bla (Escherichia coli, UniProt P62593); experiment: CDA fluorescence turn-on with recombinant TEM-1 Bla, esterase and H2O2; type: biochemical
T1 construct: TEV(Cys) (TEV site / Cys element as named in the plasmid); made in house; host or cells: E. coli (BL21 or TOP10)

K. pneumoniae/KPC = experiment: CDA/H2O2 detection of K. pneumoniae expressing KPC carbapenemase; type: cell-based; conditions: clinical isolate, H2O2 1 mM, within 2-3 hours
Description: as §1
CDA was also tested for detecting K. pneumoniae. […] Similar to E. coli/KPC-3, 10^6 c.f.u./mL KPC-positive K. pneumoniae could be detected within 2-3 hours. […]

T1 sequence (P62593 24-286 limits assumed): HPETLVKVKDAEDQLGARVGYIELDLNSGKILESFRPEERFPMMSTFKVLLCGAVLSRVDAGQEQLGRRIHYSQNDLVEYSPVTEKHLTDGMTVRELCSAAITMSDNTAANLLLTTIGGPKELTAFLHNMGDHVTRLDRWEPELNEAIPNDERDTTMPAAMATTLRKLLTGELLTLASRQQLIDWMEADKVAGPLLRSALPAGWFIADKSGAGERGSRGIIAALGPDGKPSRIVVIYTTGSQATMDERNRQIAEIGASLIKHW

SMILES: CC(=O)Oc1ccc2c(c1)Oc1cc(OC(C)=O)ccc1N2C(=O)OCc1ccc(SCC2=C(C(=O)O)N3C(=O)[C@@H](NC(=O)Cc4ccccc4)[C@H]3SC2)cc1 [CDA, 3-(((4-(((3,7-diacetoxy-10H-phenoxazine-10-carbonyl)oxy)methyl)phenyl)thio)methyl)-8-oxo-7-(2-phenylacetamido)-5-thia-1-azabicyclo[4.2.0]oct-2-ene-2-carboxylic acid]
- bacteria concentration reliably detected (E. coli/KPC-3): 10^5-10^6 c.f.u./mL
- effect of adding HRP and H2O2 on fluorescence with viable bacteria (E. coli/TEM-1; HRP 1 unit/mL, H2O2 1 μM, bacteria not lysed): contributed little to the fluorescence increase
- number of bacteria detectable in one 96 well (E. coli/TEM-1; factoring the 100 μL assay volume): 100 bacteria
- bacteria concentration detectable (E. coli/TEM-1; noninduced E. coli/TEM-1, H2O2 1 mM, within 2-3 hours): 10^6-10^7 c.f.u./mL
- minimum CDA concentration required for reporting β-lactamase/esterase activity (TEM-1 Bla; esterase 1 μg/mL, TEM-1 Bla 100 nM, H2O2 1 mM): 100 nM
- fluorescence with TEM-1 Bla and esterase without H2O2 (TEM-1 Bla; no H2O2, oxidation by dissolved oxygen): displayed fluorescence turn-on
- bacteria concentration detected (K. pneumoniae/KPC): 10^6 c.f.u./mL
